{"source": "paper PMC3701070", "about": "(PLoS ONE, 2013)", "key": {"[1]": {"molecular_target": "ALK5 (h) (Homo sapiens, UniProt P36897)", "sequence (P36897 34-503)": "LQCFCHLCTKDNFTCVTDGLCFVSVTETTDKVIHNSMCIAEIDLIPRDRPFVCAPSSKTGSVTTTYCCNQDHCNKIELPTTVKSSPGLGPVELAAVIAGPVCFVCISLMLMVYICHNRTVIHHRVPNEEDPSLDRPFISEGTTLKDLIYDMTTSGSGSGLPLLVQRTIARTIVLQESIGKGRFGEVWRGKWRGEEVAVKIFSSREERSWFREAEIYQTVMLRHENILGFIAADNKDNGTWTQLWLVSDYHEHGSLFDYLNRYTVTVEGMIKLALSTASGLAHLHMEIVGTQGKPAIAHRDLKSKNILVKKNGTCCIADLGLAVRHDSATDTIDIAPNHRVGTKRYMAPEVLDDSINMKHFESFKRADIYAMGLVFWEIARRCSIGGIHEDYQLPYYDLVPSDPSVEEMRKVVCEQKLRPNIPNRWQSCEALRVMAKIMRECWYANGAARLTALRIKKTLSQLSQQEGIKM", "test": "ALK5 binding assay"}, "[2]": {"tested_on": "195 tumor cell lines", "test": "Cell growth assay, summary over 195 tumor cell lines", "assay_type": "cell-based", "conditions": "Homo sapiens, read-out: gIC50", "protocol": "(§1) Growth was measured with CellTiter-Glo® (Promega) reagent per the manufacturer’s protocol, using a PerkinElmer EnVision™ reader at t = 0 and 72 h. IC50 values for cell growth inhibition (gIC50) were determined.\nThe functional selectivity of dabrafenib was evaluated by measuring the growth of a range of human tumor cell lines of different genetic mutation status.\n(§2) (PDF) Click here for additional data file."}, "[3]": {"tested_on": "pERK in A375P (BRAF^V600E) cells", "test": "Western blot, pERK in A375P cells", "assay_type": "cell-based", "conditions": "Homo sapiens, 8 nM, 1 h", "protocol": "(§3) Cells were lysed in 25 mM Tris-HCl pH 7.5, 2 mM EDTA, 2 mM EGTA, 1% Triton X-100, 0.1% SDS, 50 mM sodium-β-glycerophosphate, 2 mM Na3VO4, 12.5 mM sodium pyrophosphate, 2× Complete EDTA-free mini protease inhibitor tablets (Roche), 2× phosphatase inhibitor cocktails I and II (Sigma-Aldrich). Protein concentrations were determined by Bio-Rad DC™ or dye-based protein assays and lysates were resolved by SDS-PAGE (Invitrogen NuPAGE®) and transferred to PVDF membranes. Membranes were blocked with Odyssey® (LI-COR Biosciences) blocking buffer and incubated with primary antibodies overnight at 4°C. Blots were washed with PBS containing 0.1% Tween-20, incubated with secondary antibodies, and washed again prior to signal detection on a LI-COR Odyssey® reader.\n(§4) siRNA complexes were prepared per the manufacturer's instructions using Dharmacon RNAi duplex (Thermo Fisher Scientific), Lipofectamine™ RNAiMAX™ (Invitrogen), and Opti-MEM® (Gibco) and allowed to form at room temperature for at least 40 min. Volumes of 1 mL of RNAi complex were added to each well of a plate with 150 000 cells in complete medium (no antibiotic) and incubated at 37°C, 5% CO2 for the indicated times.\n(§5) Lysates were immunoblotted for the proteins indicated."}, "[4]": {"tested_on": "SK-MEL-28 cells", "test": "Caspase-3/7 activation", "assay_type": "cell-based, human", "conditions": "SK-MEL-28 (BRAF^V600E)", "protocol": "(§6) At selected times, caspase-3/7 activity and cell density were determined using Caspase-Glo® (Promega) and CellTiter-Glo® reagents, respectively, using a PerkinElmer EnVision™ reader. Caspase activity was normalized to cell density and percent induction over the DMSO control was determined.\n(§7) Cell cycle phases are shown in stacked format as a percentage of the total population. […] (PPTX) Click here for additional data file."}, "[5]": {"tested_on": "A375P cells", "test": "Caspase-3/7 activation", "assay_type": "cell-based, human", "conditions": "A375P (BRAF^V600E)", "protocol": "as §6, §7"}, "[6]": {"molecular_target": "T1, LIMK1 (h) (Homo sapiens, UniProt P53667)", "T1 construct": "purchased Millipore", "test": "Kinase panel (Millipore) enzyme activity", "assay_type": "biochemical", "description": "as §2"}, "[7]": {"tested_on": "HCT-116", "test": "Cell growth assay", "assay_type": "cell-based, human", "conditions": "HCT-116, RAF WT, KRAS(G13D), 3-day", "protocol": "as §1, §2"}, "[8]": {"tested_on": "pMEK in A375P (BRAF^V600E) cells", "test": "Western blot, pMEK in A375P cells", "assay_type": "cell-based", "conditions": "Homo sapiens, 8 nM, 1 h", "protocol": "as §3, §4, §5"}, "[9]": {"molecular_target": "T2, BRAF (Rattus norvegicus, UniProt A0A8I6AFV6)", "T2 construct": "Full-length BRAF genes were tagged with 6×His-SBP; 6xHis-SBP; made in house; host or cells: HEK293F", "T2 sequence (A0A8I6AFV6 1-804)": "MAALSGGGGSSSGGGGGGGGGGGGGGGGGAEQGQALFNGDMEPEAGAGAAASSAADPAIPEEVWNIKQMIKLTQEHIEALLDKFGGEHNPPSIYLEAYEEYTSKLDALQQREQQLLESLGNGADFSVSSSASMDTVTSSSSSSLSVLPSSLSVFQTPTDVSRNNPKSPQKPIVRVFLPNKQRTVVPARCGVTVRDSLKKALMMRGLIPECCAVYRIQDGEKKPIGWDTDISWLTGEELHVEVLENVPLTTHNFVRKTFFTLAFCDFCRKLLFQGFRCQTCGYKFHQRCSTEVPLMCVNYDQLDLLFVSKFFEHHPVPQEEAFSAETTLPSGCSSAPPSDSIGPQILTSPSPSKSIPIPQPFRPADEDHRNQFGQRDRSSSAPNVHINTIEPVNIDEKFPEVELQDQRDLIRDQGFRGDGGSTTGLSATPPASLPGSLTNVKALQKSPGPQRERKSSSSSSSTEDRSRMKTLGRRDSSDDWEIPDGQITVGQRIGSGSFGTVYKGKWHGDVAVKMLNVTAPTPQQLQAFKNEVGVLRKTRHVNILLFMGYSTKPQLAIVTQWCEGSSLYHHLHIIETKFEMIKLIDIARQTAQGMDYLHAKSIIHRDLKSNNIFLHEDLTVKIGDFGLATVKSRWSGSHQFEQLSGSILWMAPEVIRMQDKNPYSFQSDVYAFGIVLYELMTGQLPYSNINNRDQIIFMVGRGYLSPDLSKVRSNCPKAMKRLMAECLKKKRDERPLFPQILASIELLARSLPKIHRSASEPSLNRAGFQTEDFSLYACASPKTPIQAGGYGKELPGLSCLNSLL", "test": "BRAF/CRAF-activated MEK ATPase coupled assay", "assay_type": "biochemical", "conditions": "Enzyme BRAF", "protocol": "(§8) Various BRAF orthologs (human, cynomolgus monkey, dog, rat) were cloned in-house. […] Full-length BRAF genes were tagged with 6×His-SBP and transiently transfected in a HEK293F expression system (Invitrogen K9000-01 protocol). Transfected cells were incubated at 37°C, 5% CO2 on a shaker at 80 r.p.m. for 48 h and harvested by centrifugation. BRAF proteins were purified by UltraLink®-immobilized Streptavidin affinity and Superdex™ 200 size exclusion chromatography.\n(§9) N-terminal GST-tagged MEK1 was expressed in BL21[DE3]/pRR692 cells and purified by Glutathione Sepharose™ 4FF and Q-Sepharose™ chromatography. The GST tag was cleaved with TEV protease and MEK1 was purified on a Superdex™ 200 column."}, "[10]": {"molecular_target": "T3, BRAF (Canis lupus familiaris, UniProt A0A8I3SCX1)", "T3 construct": "Full-length BRAF genes were tagged with 6×His-SBP; 6xHis-SBP; made in house; host or cells: HEK293F", "T3 sequence (A0A8I3SCX1 1-803)": "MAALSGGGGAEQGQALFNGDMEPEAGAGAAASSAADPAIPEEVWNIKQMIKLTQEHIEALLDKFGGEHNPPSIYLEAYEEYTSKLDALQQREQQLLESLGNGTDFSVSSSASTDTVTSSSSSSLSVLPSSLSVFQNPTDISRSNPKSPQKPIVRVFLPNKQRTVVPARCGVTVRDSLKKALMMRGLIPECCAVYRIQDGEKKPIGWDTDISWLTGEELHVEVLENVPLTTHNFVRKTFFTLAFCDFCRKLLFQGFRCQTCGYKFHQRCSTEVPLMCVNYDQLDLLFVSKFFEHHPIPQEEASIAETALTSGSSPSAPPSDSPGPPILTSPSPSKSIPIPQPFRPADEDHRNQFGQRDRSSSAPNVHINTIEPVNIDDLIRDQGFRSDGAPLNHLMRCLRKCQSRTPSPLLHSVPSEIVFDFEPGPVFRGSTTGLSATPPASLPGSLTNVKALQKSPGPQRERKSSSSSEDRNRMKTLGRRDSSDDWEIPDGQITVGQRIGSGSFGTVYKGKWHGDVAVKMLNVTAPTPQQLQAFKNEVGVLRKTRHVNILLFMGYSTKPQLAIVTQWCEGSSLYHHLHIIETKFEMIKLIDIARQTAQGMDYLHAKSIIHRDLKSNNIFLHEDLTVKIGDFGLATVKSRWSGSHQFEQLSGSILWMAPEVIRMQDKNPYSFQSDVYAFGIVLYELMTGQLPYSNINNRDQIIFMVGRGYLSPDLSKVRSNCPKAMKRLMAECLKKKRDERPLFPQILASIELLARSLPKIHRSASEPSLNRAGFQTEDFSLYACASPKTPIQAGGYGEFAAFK", "test": "BRAF/CRAF-activated MEK ATPase coupled assay", "assay_type": "biochemical", "conditions": "Enzyme BRAF, Dog", "protocol": "as §8, §9"}, "[11]": {"molecular_target": "BRAF (Macaca fascicularis, UniProt A0A7N9IA21)", "sequence (A0A7N9IA21 entry or part of it)": "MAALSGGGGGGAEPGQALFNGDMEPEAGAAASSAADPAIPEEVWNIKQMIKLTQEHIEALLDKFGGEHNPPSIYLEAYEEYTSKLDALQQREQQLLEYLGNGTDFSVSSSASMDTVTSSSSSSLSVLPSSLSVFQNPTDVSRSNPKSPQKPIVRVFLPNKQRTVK", "test": "BRAF/CRAF-activated MEK ATPase coupled assay", "assay_type": "biochemical", "conditions": "Enzyme BRAF, Cyno", "protocol": "as §8, §9"}, "[12]": {"tested_on": "pMEK and pERK in HCT-116 (wild-type BRAF, mutant KRAS) cells", "test": "Western blot, paradoxical MAPK activation in HCT-116 cells", "assay_type": "cell-based, human", "conditions": "100 nM or 300 nM, 1 h", "protocol": "as §3\nLysates were immunoblotted for total ERK (tERK) and dual-phosphorylated ERK (ppERK) (B)."}, "[13]": {"test": "Pharmacokinetic analysis in tumor-bearing mice", "conditions": "30 mg/kg oral once daily, blood", "protocol": "Compound concentrations were determined from flash-frozen hemolyzed blood samples (blood:water ratio of 1∶1) or tumor homogenates (tumor:water ratio of 1∶4) by HPLC/MS-MS analysis."}, "[14]": {"molecular_target": "T4, PKD2 (h) (Homo sapiens, UniProt Q9BZL6)", "T4 construct": "purchased Millipore", "test": "Kinase panel (Millipore) enzyme activity", "assay_type": "biochemical"}, "[15]": {"tested_on": "A375", "test": "Cell growth assay", "assay_type": "cell-based", "conditions": "Homo sapiens, A-375, 72 h; A375, BRAF(V600E), RAS WT, 3-day; read-out: gIC50", "protocol": "as §1, §2\nSupplementary file pone.0067583.s006.pdf: Table S3 Enzymatic and cellular activity of tool inhibitors used in the rat skin lesion formation study. Activity of GSK2366297A (BRAF tool inhibitor) and GSK2091975 (MEK tool inhibitor, active form of prodrug GSK2091976) were measured against their respective enzyme targets as described in the Materials and Methods section. Cellular activity was determined for each by inhibition of ERK phosphorylation in SK-MEL-28 cells and growth of A375 cells, both of which express BRAF^V600E. (PDF) Click here for additional data file."}, "[16]": {"molecular_target": "ALK5 (Homo sapiens, UniProt P36897)", "sequence (P36897 34-503, species assumed)": "as the sequence (P36897 34-503) above", "test": "ALK5 cell-based assay"}}, "note": "Where two headings read alike, the source gives them in different places."}
{"smiles": "CC(C)(C)c1nc(-c2cccc(NS(=O)(=O)c3c(F)cccc3F)c2F)c(-c2ccnc(N)n2)s1", "note": "[dabrafenib]", "values": [{"measurement": "IC50", "setting": "[1]", "value": 11, "unit": "nM"}, {"measurement": "IC50", "setting": "[2]; 133 (88%) of the 152 RAS/RAF wild-type and all 18 mutant RAS cell lines", "value": "> 10000", "unit": "nM"}, {"measurement": "IC50", "setting": "[2]; A673, 3 of the BRAF^V600E cell lines (GCT, RKO, A673)", "value": "> 2000", "unit": "nM"}, {"measurement": "IC50", "setting": "[2]; sixteen (80%) of the 20 cell lines encoding BRAF^V600E", "value": "< 200", "unit": "nM"}, {"measurement": "inhibition at 0.008 µM", "setting": "[3]", "value": "> 90", "unit": "%"}, {"measurement": "caspase-3/7 activation and apoptosis", "setting": "[4]", "value": "induced caspase-3/7 activation and apoptosis"}, {"measurement": "caspase-3/7 activation and apoptosis", "setting": "[5]", "value": "induced caspase-3/7 activation and apoptosis"}, {"measurement": "IC50", "setting": "[6]", "value": 15, "unit": "nM"}, {"measurement": "gIC50", "setting": "[7]", "value": "insensitive"}, {"measurement": "IC50", "setting": "[7]; Homo sapiens, 72 h, read-out: gIC50", "value": "> 10000", "unit": "nM"}, {"measurement": "inhibition at 0.008 µM", "setting": "[8]", "value": "> 90", "unit": "%"}, {"measurement": "IC50", "setting": "[9]", "value": 4, "unit": "nM"}, {"measurement": "IC50", "setting": "[10]", "value": 4, "unit": "nM"}, {"measurement": "IC50", "setting": "[11]; read-out: IC50", "value": 4, "unit": "nM"}, {"measurement": "IC50", "setting": "[11]; read-out: pIC50 +/- std. dev. (converted)", "value": 3.98, "unit": "nM"}, {"measurement": "pMEK and pERK compared with DMSO control", "setting": "[12]", "value": "increased pMEK and pERK"}, {"measurement": "oral bioavailability", "setting": "[13]", "value": "orally bioavailable"}, {"measurement": "IC50", "setting": "[14]", "value": 57, "unit": "nM"}, {"measurement": "IC50", "setting": "[15]", "value": 4, "unit": "nM"}, {"measurement": "ALK5 inhibition in cell-based assay", "setting": "[16]", "value": "absence of ALK5 inhibition"}]}
